# PubChem BioAssay AID720668 (NMMLSC, 2013)
# The source made the active and inactive calls.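 Rule for the calls: active = MAPK inhibition above 50%; inactive = inhibition below 50%.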
# Test system: ERK MAP kinase activity (EKAR reporter), human
# Assay: inhibitors of ERK MAP kinase catalytic activity, late-stage follow-up, mechanism study for lytic granule exocytosis inhibitor project, TALL-104 cells, EKAR, flow cytometry, CherryPick01 (AID 720668)
# Details: EKAR/pCdc25C flow cytometry, PMA/thapsigargin, at 30 µM, stronger effect = higher value
row,inhibition,SMILES
1,4.6% (inactive),O=C(Cn1sc2ccccc2c1=O)Nc1ccc(F)cc1
2,21.5% (inactive),O=c1c2ccc(F)cc2sn1-c1ccccc1
3,-20.8% (inactive),CCN(CC)CCCNc1ccc(-c2nnc(-c3ccc(OCC(C)C)cc3)o2)cn1
4,-19% (inactive),O=CNc1cc(-c2ccsc2)cn2c(-c3ccccc3)cnc12
5,-34.2% (inactive),COc1ccc(-c2cc(NC=O)c3ncc(-c4cccc(OC)c4)n3c2)cc1
6,-52.7% (inactive),CC1COCC(C)N1C1=C(Cl)C(=O)c2ccccc2C1=O (configuration not stated)
7,-13.5% (inactive),CC(C)(c1ccccc1)c1ccc(OCC(O)CNC2CCN(Cc3ccccc3)CC2)cc1 (configuration not stated)
8,-3.6% (inactive),O=C(CN1C(=O)/C(=C\c2cccc(Br)c2)Oc2ccccc21)NCCCN1CCOCC1
9,7.3% (inactive),CCCCC[C@@H](C)N1C[C@@H](COCc2ccccc2)Oc2cc(N3CC[C@@H](N(C)C)C3)ccc2S1(=O)=O
10,14.4% (inactive),COC(=O)c1c(NC(=O)c2nc3ccccc3s2)sc2c1CC(C)(C)NC2(C)C
11,13.3% (inactive),COc1ccc(-n2sc3ccccc3c2=O)cc1
12,-19.8% (inactive),COc1ccc(-c2cc(NC=O)c3ncc(-c4ccccc4)n3c2)cc1OC
13,-15.1% (inactive),Cc1ccc(S(=O)(=O)n2ccc3c(OCCOCCNCc4ccc(F)cc4)cccc32)cc1
14,-6.6% (inactive),CN(C)CCNC(=O)c1ccc(-c2cn3c(-c4ccc(Oc5ccccc5)cc4)cnc3cn2)cc1
15,-9.9% (inactive),COc1ccccc1CNc1nc(NCc2ccc(C(C)C)cc2)c2sccc2n1
16,-4% (inactive),COc1ccc(N2C(=O)CC(Sc3nnc(-c4ccccc4)o3)C2=O)cc1 (configuration not stated)
17,-6.4% (inactive),Cc1ccc(Nc2nc(NCc3ccco3)c3ccccc3n2)cc1
18,6.3% (inactive),CCCCC[C@@H](C)N1C[C@@H](COCc2ccccc2)Oc2cc(N3CC[C@H](N(C)C)C3)ccc2S1(=O)=O
19,-5.3% (inactive),CCCCC[C@@H](C)N1C[C@H](COCc2ccccc2)Oc2cc(N3CC[C@@H](N(C)C)C3)ccc2S1(=O)=O
20,-1.6% (inactive),O=c1c2ccccc2sn1-c1ccccc1
21,29.8% (inactive),O=C(Cn1sc2ccccc2c1=O)NC12CC3CC(CC(C3)C1)C2
22,16.5% (inactive),CC1=NOC(=O)/C1=C/c1ccc(-c2ccc(Cl)cc2)o1
